Data taken from patent US9062078B2, “Substituted 7-azabicyles and their use as orexin receptor modulators” (priority 2013, dated 2015).
pKi: −log10 of the molar value.

Target: rat orexin 1 receptor (Rattus norvegicus, UniProt P56718)
Experiment: Rat orexin 1 receptor radioligand binding (competitive, [3H]-SB674042, HEK293 cell preparations)
Settings: rat orexin 1 receptor, [3H]-SB674042 competition binding; read-out: rOX1 Ki (nm)

| Structure (SMILES) | pKi |
| --- | --- |
| O=C(c1cccc(F)c1-c1ncccn1)N1C2CCC1C(Oc1ncc(C(F)(F)F)cn1)C2 (racemic) [Example 286, (±)-(3-fluoro-2-(pyrimidin-2-yl)phenyl)(2-((5-(trifluoromethyl)pyrimidin-2-yl)oxy)-7-azabicyclo[2.2.1]heptan-7-yl)methanone] | < 5.00 |
| Cc1cc(C)nc(NC2CC3CCC2N3C(=O)c2nc(C)ccc2-n2nccn2)n1 (racemic) [Example 201, (±)-(2-((4,6-dimethylpyrimidin-2-yl)amino)-7-azabicyclo[2.2.1]heptan-7-yl)(6-methyl-3-(2H-1,2,3-triazol-2-yl)pyridin-2-yl)methanone] | 5.43 |
| Cc1ccc(-c2ncccc2C)c(C(=O)N2C3CCC2C(COc2ccccn2)C3)n1 (racemic) [Example 90, (±)-(3,6′-dimethyl-[2,3′-bipyridin]-2′-yl)(2-((pyridin-2-yloxy)methyl)-7-azabicyclo[2.2.1]heptan-7-yl)methanone] | 5.52 |
| CCOc1nccc(Br)c1C(=O)N1C2CCC1C(COc1ccccn1)C2 (racemic) [Example 161, (±)-(4-bromo-2-ethoxypyridin-3-yl)(2-((pyridin-2-yloxy)methyl)-7-azabicyclo[2.2.1]heptan-7-yl)methanone] | 6.32 |

Target: human orexin 2 receptor (Homo sapiens (Human), UniProt O43614)
Experiment: Human orexin 2 receptor radioligand binding (competitive, [3H]-EMPA, HEK293 cell preparations)
Settings: hOX2 Ki (nm)

Sequence of human orexin 2 receptor (O43614 whole entry): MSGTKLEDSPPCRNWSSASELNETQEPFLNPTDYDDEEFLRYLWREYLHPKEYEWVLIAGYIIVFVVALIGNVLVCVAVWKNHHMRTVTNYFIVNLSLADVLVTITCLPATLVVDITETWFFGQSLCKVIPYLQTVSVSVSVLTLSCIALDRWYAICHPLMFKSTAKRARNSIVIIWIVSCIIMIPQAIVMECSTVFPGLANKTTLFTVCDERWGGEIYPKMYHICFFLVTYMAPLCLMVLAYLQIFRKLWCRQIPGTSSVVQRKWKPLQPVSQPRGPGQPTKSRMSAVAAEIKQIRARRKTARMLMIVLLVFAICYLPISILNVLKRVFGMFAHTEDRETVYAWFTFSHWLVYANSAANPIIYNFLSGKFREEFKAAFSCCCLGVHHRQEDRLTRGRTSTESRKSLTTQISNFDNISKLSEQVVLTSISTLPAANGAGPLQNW

| Structure (SMILES) | pKi |
| --- | --- |
| Cc1ccc(-c2ncccc2C)c(C(=O)N2C3CCC2C(COc2ccccn2)C3)n1 (racemic) [Example 90, (±)-(3,6′-dimethyl-[2,3′-bipyridin]-2′-yl)(2-((pyridin-2-yloxy)methyl)-7-azabicyclo[2.2.1]heptan-7-yl)methanone] | < 5.00 |
| CCOc1nccc(Br)c1C(=O)N1C2CCC1C(COc1ccccn1)C2 (racemic) [Example 161, (±)-(4-bromo-2-ethoxypyridin-3-yl)(2-((pyridin-2-yloxy)methyl)-7-azabicyclo[2.2.1]heptan-7-yl)methanone] | 5.84 |
| Cc1ccc(-n2nccn2)c(C(=O)N2[C@@H]3CC[C@H]2[C@H](COc2ccccn2)C3)n1 [Example 5A, (6-methyl-3-(2H-1,2,3-triazol-2-yl)pyridin-2-yl)((1S,2R,4R)-2-((pyridin-2-yloxy)methyl)-7-azabicyclo[2.2.1]heptan-7-yl)methanone] | 6.37 |
| Cc1ccc(-n2nccn2)c(C(=O)N2C3CCC2C(COc2ccccn2)C3)n1 (racemic) [Example 4, (±)-(6-methyl-3-(2H-1,2,3-triazol-2-yl)pyridin-2-yl)(2-((pyridin-2-yloxy)methyl)-7-azabicyclo[2.2.1]heptan-7-yl)methanone] | 6.03 |
| Cc1ccc(-n2nccn2)c(C(=O)N2C3CCC2C(COc2ccccn2)C3)n1 [Example 6, (6-methyl-3-(2H-1,2,3-triazol-2-yl)pyridin-2-yl)((1S,2R,4R)-2-((pyridin-2-yloxy)methyl)-7-azabicyclo[2.2.1]heptan-7-yl)methanone] | 6.37 |
| CCOc1ccccc1C(=O)N1C2CCC1C(COc1nc(C)cc(C)n1)C2 (racemic) [Example 42, (±)-(2-(((4,6-dimethylpyrimidin-2-yl)oxy)methyl)-7-azabicyclo[2.2.1]heptan-7-yl)(2-ethoxyphenyl)methanone] | 6.60 |

Same assay, conditions: human orexin 2 receptor, [3H]-EMPA competition binding; read-out: hOX2 Ki (nm)

| Structure (SMILES) | pKi |
| --- | --- |
| O=C(c1cccc(F)c1-c1ncccn1)N1C2CCC1C(Oc1ncc(C(F)(F)F)cn1)C2 (racemic) [Example 286, (±)-(3-fluoro-2-(pyrimidin-2-yl)phenyl)(2-((5-(trifluoromethyl)pyrimidin-2-yl)oxy)-7-azabicyclo[2.2.1]heptan-7-yl)methanone] | < 5.00 |
| Cc1cc(C)nc(NC2CC3CCC2N3C(=O)c2nc(C)ccc2-n2nccn2)n1 (racemic) [Example 201, (±)-(2-((4,6-dimethylpyrimidin-2-yl)amino)-7-azabicyclo[2.2.1]heptan-7-yl)(6-methyl-3-(2H-1,2,3-triazol-2-yl)pyridin-2-yl)methanone] | 5.96 |
| COc1c(F)cccc1C(=O)N1C2CCC1C(COc1ccc(F)cn1)C2 (racemic) [Example 173, (±)-(3-fluoro-2-methoxyphenyl)(2-(((5-fluoropyridin-2-yl)oxy)methyl)-7-azabicyclo[2.2.1]heptan-7-yl)methanone] | 5.52 |
| Cc1cccc(C(=O)N2[C@@H]3CC[C@H]2[C@H](Nc2ncc(C(F)(F)F)cn2)C3)c1-c1ncccn1 [Example 281, (3-methyl-2-(pyrimidin-2-yl)phenyl)((1S,2R,4R)-2-((5-(trifluoromethyl)pyrimidin-2-yl)amino)-7-azabicyclo[2.2.1]heptan-7-yl)methanone] | 5.92 |
| O=C(c1cc(F)ccc1-c1ncccn1)N1[C@@H]2CC[C@H]1[C@H](COc1ccccn1)C2 [Example 1, (5-fluoro-2-(pyrimidin-2-yl)phenyl)((1S,2R,4R)-2-((pyridin-2-yloxy)methyl)-7-azabicyclo[2.2.1]heptan-7-yl)methanone] | 6.56 |
| Cc1cccc(C(=O)N2[C@@H]3CC[C@H]2[C@H](Nc2ccc(C(F)(F)F)cn2)C3)c1-n1nccn1 [Example 295, (3-methyl-2-(2H-1,2,3-triazol-2-yl)phenyl)((1S,2R,4R)-2-((5-(trifluoromethyl)pyridin-2-yl)amino)-7-azabicyclo[2.2.1]heptan-7-yl)methanone] | 6.59 |
| O=C(c1cccc(F)c1-c1cnccn1)N1[C@@H]2CC[C@H]1[C@H](Nc1cnc(C(F)(F)F)cn1)C2 [Example 265, (3-fluoro-2-(pyrazin-2-yl)phenyl)-((1S,2R,4R)-2-((5-(trifluoromethyl)pyrazin-2-yl)amino)-7-azabicyclo[2.2.1]heptan-7-yl)methanone] | 6.73 |
| COc1cccc(-c2ncccn2)c1C(=O)N1[C@@H]2CC[C@H]1[C@H](Nc1cnc(C(F)(F)F)cn1)C2 [Example 289, (2-methoxy-6-(pyrimidin-2-yl)phenyl)((1S,2R,4R)-2-((5-(trifluoromethyl)pyrazin-2-yl)amino)-7-azabicyclo[2.2.1]heptan-7-yl)methanone] | 6.76 |
| Cc1cccc(C(=O)N2[C@@H]3CC[C@H]2[C@H](Nc2ccc(C(F)(F)F)cn2)C3)c1-c1ncco1 [Example 296, (3-methyl-2-(oxazol-2-yl)phenyl)((1S,2R,4R)-2-((5-(trifluoromethyl)pyridin-2-yl)amino)-7-azabicyclo[2.2.1]heptan-7-yl)methanone] | 6.94 |
| O=C(c1c(F)cccc1-c1ncccn1)N1[C@@H]2CC[C@H]1[C@H](Nc1cnc(C(F)(F)F)cn1)C2 [Example 290, (2-fluoro-6-(pyrimidin-2-yl)phenyl)((1S,2R,4R)-2-((5-(trifluoromethyl)pyrazin-2-yl)amino)-7-azabicyclo[2.2.1]heptan-7-yl)methanone] | 6.25 |
| Cc1ccc(-n2nccn2)c(C(=O)N2C3CCC2C(COc2ccc(F)cn2)C3)c1 (racemic) [Example 9, (±)-(2-(((5-fluoropyridin-2-yl)oxy)methyl)-7-azabicyclo[2.2.1]heptan-7-yl)(5-methyl-2-(2H-1,2,3-triazol-2-yl)phenyl)methanone] | 7.24 |
| Cc1cccc(C(=O)N2[C@@H]3CC[C@H]2[C@H](Nc2cnc(C(F)(F)F)cn2)C3)c1-c1ncccn1 [Example 273, (3-methyl-2-(pyrimidin-2-yl)phenyl)((1S,2R,4R)-2-((5-(trifluoromethyl)pyrazin-2-yl)amino)-7-azabicyclo[2.2.1]heptan-7-yl)methanone] | 6.48 |
| CCOc1ccc2cccnc2c1C(=O)N1[C@@H]2CC[C@H]1[C@H](Nc1cnc(C(F)(F)F)cn1)C2 [Example 291, (7-ethoxyquinolin-8-yl)((1S,2R,4R)-2-((5-(trifluoromethyl)pyrazin-2-yl)amino)-7-azabicyclo[2.2.1]heptan-7-yl)methanone] | 6.37 |
| O=C(c1cccc(F)c1-n1nccn1)N1[C@@H]2CC[C@H]1[C@H](Nc1ccc(C(F)(F)F)cn1)C2 [Example 294, (3-fluoro-2-(2H-1,2,3-triazol-2-yl)phenyl)((1S,2R,4R)-2-((5-(trifluoromethyl)pyridin-2-yl)amino)-7-azabicyclo[2.2.1]heptan-7-yl)methanone] | 5.92 |
| CCOc1ccc2ccccc2c1C(=O)N1[C@@H]2CC[C@H]1[C@H](Nc1cnc(C(F)(F)F)cn1)C2 [Example 239, (2-ethoxynaphthalen-1-yl)((1S,2R,4R)-2-((5-(trifluoromethyl)pyrazin-2-yl)amino)-7-azabicyclo[2.2.1]heptan-7-yl)methanone] | 6.31 |
| O=C(c1cc(F)ccc1-n1nccn1)N1[C@@H]2CC[C@H]1[C@H](Nc1cnc(C(F)(F)F)cn1)C2 [Example 256, (5-fluoro-2-(2H-1,2,3-triazol-2-yl)phenyl)((1S,2R,4R)-2-((5-(trifluoromethyl)pyrazin-2-yl)amino)-7-azabicyclo[2.2.1]heptan-7-yl)methanone] | 5.96 |
| Cc1cccc(C(=O)N2[C@@H]3CC[C@H]2[C@H](Nc2ncc(C(F)(F)F)cn2)C3)c1-c1ccccn1 [Example 293, (3-methyl-2-(pyridin-2-yl)phenyl)((1S,2R,4R)-2-((5-(trifluoromethyl)pyrimidin-2-yl)amino)-7-azabicyclo[2.2.1]heptan-7-yl)methanone] | 5.96 |
| COc1c(F)cccc1C(=O)N1C2CCC1C(COc1ccc(F)cn1)C2 (racemic) [Example 107, (±)-((3-fluoro-2-methoxyphenyl)(2-(((5-fluoropyridin-2-yl)oxy)methyl)-7-azabicyclo[2.2.1]heptan-7-yl)methanone] | 5.66 |
| Cc1cccc(C(=O)N2[C@@H]3CC[C@H]2[C@H](Nc2ncc(C(F)(F)F)cn2)C3)c1-c1ncco1 [Example 283, (3-methyl-2-(oxazol-2-yl)phenyl)((1S,2R,4R)-2-((5-(trifluoromethyl)pyrimidin-2-yl)amino)-7-azabicyclo[2.2.1]heptan-7-yl)methanone] | 6.38 |
| O=C(c1cccc(F)c1-n1nccn1)N1[C@@H]2CC[C@H]1[C@H](Nc1cnc(C(F)(F)F)cn1)C2 [Example 252, (3-fluoro-2-(2H-1,2,3-triazol-2-yl)phenyl)((1S,2R,4R)-2-((5-(trifluoromethyl)pyrazin-2-yl)amino)-7-azabicyclo[2.2.1]heptan-7-yl)methanone] | 5.91 |
| Cc1ccc(-n2nccn2)c(C(=O)N2[C@@H]3CC[C@H]2[C@H](COc2ccc(F)cn2)C3)c1 [Example 10A, ((1S,2R,4R)-2-(((5-fluoropyridin-2-yl)oxy)methyl)-7-azabicyclo[2.2.1]heptan-7-yl)(5-methyl-2-(2H-1,2,3-triazol-2-yl)phenyl)methanone] | 7.49 |
| CCOc1ncc2ccccc2c1C(=O)N1[C@@H]2CC[C@H]1[C@H](Nc1cnc(C(F)(F)F)cn1)C2 [Example 246, (3-ethoxyisoquinolin-4-yl)((1S,2R,4R)-2-((5-(trifluoromethyl)pyrazin-2-yl)amino)-7-azabicyclo[2.2.1]heptan-7-yl)methanone] | 5.99 |

Same assay, conditions: read-out: hOX2 Ki (nm)

| Structure (SMILES) | pKi |
| --- | --- |
| Cc1ccc(-n2nccn2)c(C(=O)N2[C@H]3CC[C@@H]2[C@@H](COc2ccccn2)C3)n1 [Example 5B, (6-methyl-3-(2H-1,2,3-triazol-2-yl)pyridin-2-yl)((1R,2S,4S)-2-((pyridin-2-yloxy)methyl)-7-azabicyclo[2.2.1]heptan-7-yl)methanone] | < 5.00 |
| O=C(c1ccccc1-n1nccn1)N1C2CCC1C(Nc1cnc(C(F)(F)F)cn1)C2 (single isomer, unassigned) [Example 183a] | < 5.00 |
